Measured values as given in patent US20230380435A1, “METHOD FOR PREPARING AND PRESERVING SANITIZED PRODUCTS” (Apeel Technology, Inc., priority 2016, published 2023).

Key:
Listeria monocytogenes = settings: cited from earlier work
Botrytis = settings: applied for 10 at least seconds; cited from earlier work
blueberries = assay: Effect of ethanol on post-harvest mass loss of blueberries; settings: after just under four days, solvent only, no coating agent, 23-27 °C, humidity 40%-55%
From the text: The blueberries were all harvested simultaneously and divided into groups, each of the groups being qualitatively identical to the other groups (i.e., all groups had blueberries of approximately the same average size and quality).
Blueberries were harvested simultaneously and divided into four groups of sixty blueberries each, each of the groups being qualitatively identical (i.e., all groups had blueberries of approximately the same average size and quality). The first group of blueberries was not washed or treated in any way and served as a control group.
To treat the blueberries with the various solvents, the blueberries were placed in bags, and the solvent was poured into the bag. The bag was then sealed and lightly agitated until the entire surface of each blueberry was wet. The blueberries were then removed from the bag and allowed to dry on drying racks. The blueberries were kept under ambient room conditions at a temperature in the range of 23° C.-27° C. and humidity in the range of 40%-55% while they dried and for the entire duration of the time they were tested.

In the case of `CCO` [substantially pure ethanol (108), ethanol], the “ethanol concentration inhibiting (not completely stopping) growth” value (Listeria monocytogenes) is given as 5%, the “ethanol concentration inhibiting germination” value (Botrytis) is given as ≥ 30% and the “average percent mass loss” value (blueberries) is given as “about 19%”.
